US8071321B2, “Methods for up-regulating antigen expression in tumors” (CytoCure LLC, priority 2002, dated 2011)

Key:
[1] = tested on: gp100 antigen in MU-X melanoma cells; assay: Flow cytometric analysis of gp100 (HMB) staining in MU-X low antigen-expressing cells; format: cell-based, human
Description: (§1) Determination of protein Antigen in Tumor Cells via Flow Cytometric Analysis: To evaluate expression of cytoplasmic Melan-A/MART-1 antigen in melanoma tumor cell lines, cells were first fixed for 10′ in 1% paraformaldehyde; the cells are pelleted and incubated for 5′ in 0.1% saponin prior to washing and addition of monoclonal antibody specific for Melan-A/MART-1, A-103 (Ramirez-Montagut, et al., supra) for 45′ at 22° C. Following two washes, the cells were stained for 30′ with FITC-conjugated goat-anti-mouse Ig antibody (DAKO, Carpenteria, Calif.) prior to fixation in 1% paraformaldehyde and analysis by flow cytometry (FACScan, Becton-Dickinson, Mt. View, Calif.). Histograms of fluorescence staining were generated for comparison of anti-Melan-A/MART-1 staining of various cell populations. Mean channel fluorescence was calculated using the “LYSIS” software provided by the manufacturer. Gp100 expression was determined similarly using the HMB45 monoclonal antibody.

[2] = tested on: Melan-A/MART-1 in MITF-M transfected A375 tumor cells; details: 24 hours, U0126 10 μM (FIG. 6)
Description: (§2) Primers were designed from appropriate GenBank mRNA and genomic entries and designed to be intron-spanning to prevent simultaneous amplification of traces of genomic DNAs. Where this was not possible RNAs were treated with RNase-free DNase I and repurified.
(§3) To express MITF-M in cell lines expressing low levels of Melan-A/MART-1, MITF-M coding sequence was amplified from MITF-M-positive cells and cloned in an SV40-promoter expression vector (pSV21ink); translation of the MITF-M insert uses optimal Kozak initiation signals (Kozak (1999). Gene 234:187). Constructs were transfected into low-Melan-A/MART-1 expressor melanoma (MU-X and A375). In all studies controls comprised empty vector, transfection reagents in the absence of added DNA, and corresponding untransfected cells. Data shown in FIG. 6 for A375 and MU-X tumor cells transfected with MITF-M for 24 hours in the presence (10 μM) or absence of U0126 before PCR amplification of Melan-A/MART-1.

[3] = tested on: Melan-A/MART-1 in MITF-M transfected MU-X tumor cells; details: 24 hours, U0126 10 μM (FIG. 6)
Description: as §2, §3

[4] = tested on: gp100 antigen in MU-89 melanoma cells; assay: Flow cytometric analysis of gp100 (HMB45 staining) in MU-89 cells; format: cell-based, human; details: HMB 45 staining, control MU-89 41.6
Description: as §1

[5] = tested on: melanocyte-related genes in MU-89 cells; assay: RT-PCR of melanoma gene expression in MU-89 cells; format: cell-based, human; details: MU-89 cells (FIG. 5)

Q: For `Nc1ncn([C@H]2C[C@H](O)[C@@H](CO)O2)c(=O)n1` [5 azadeoxycytidine], which “effect on interferon-beta induced gp100 expression” value ([1]; gp100 (HMB) staining (FIG. 4)) is on record?
A: augmented

Q: For `Nc1ncn([C@@H]2O[C@H](CO)[C@@H](O)[C@H]2O)c(=O)n1` [5-AZA, 5-azacytidine], which “gp100 mean channel fluorescence” value ([1]; MU-X cells, 5-AZA 40uM, MU-X control 12.8) is on record?
A: 39.0

Q: How did the Melan-A/MART-1 expression [2] turn out when `N#CC(=C(/N)Sc1ccccc1N)/C(C#N)=C(\N)Sc1ccccc1N` [U0126] was run?
A: augmented enhancement

Q: What about the Melan-A/MART-1 expression [3] of the same molecule?
A: augmented enhancement

B1: OSM: Recombinant human oncostatin M (rhOSM) from R&D Systems (protein, UniProt P13725 26-221, looked up)
Oncostatin-M: AAIGSCSKEYRVLLGQLQKQTDLMQDTSRLLDPYIRIQGLDVPKLREHCRERPGAFPSEETLRGLGRRGFLQTLNATLGCVLHRLADLEQRLPKAQDLERSGLNIEDLEKLQMARPNILGLRNNIYCMAQLLDNSDTAEPTKAGRGASQPPTPTPASDAFQRKLEGCRFLHGYHRFMHSVGRVFSKWGESPNRSRR
Q: Which “gp100 mean channel fluorescence” value [4] does the source give for B1 here?
A: 29.5

Q: What about the MITF-A isoform expression [5] of the same molecule?
A: not detectably responsive

Q: What about the MITF-M expression [5] of the same molecule?
A: down-modulates

Q: And the “expression of Melan-A/MART-1, tyrosinase, gp100, TRP-1 and TRP-2 genes” value [5]?
A: induces down-modulation
